Results taken from the supplement of paper PMC11061612.

How the values were obtained:
[1] = system: SUP-B15 (B-Lymphoblastic Leukemia); test: Bliss excess, mean over the matrix (fraction); higher = more synergy
Procedure, shortened: (§1)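 Cell lines grown in DMEM/F12 or RPMI with 10% FBS were plated in 1536-well plates and held 24 hours at 37°C, 5% CO2 before 72 hours of exposure to two-drug dose matrices, with DMSO typically at 0.2%. CellTiter-Glo 2.0 luminescence gave viability, which was converted to inhibition. Vehicle wells were set to 0 and blank wells to 1. Combination Emax is the second-highest inhibition in the matrix, and Bliss excess is the observed combination effect minus the expected EA + EB − EA·EB, where EA and EB are the single-agent effects.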

[2] = system: NCI-H929 (Plasma Cell Myeloma); test: as above
Procedure, shortened: as §1

SJSA-1 (Osteosarcoma) = test: as above
Procedure, shortened: as §1

[3] = system: MOLM-13 (Acute Myeloid Leukemia); test: as above
Procedure, shortened: as §1

[4] = system: JHH-4 (Hepatocellular Carcinoma); test: as above
Procedure, shortened: as §1

[5] = system: MOG-G-CCM (Low Grade Glioma); test: as above
Procedure, shortened: as §1

[6] = system: NCCIT (Other Solid Carcinomas); test: as above
Procedure, shortened: as §1

M059J (Glioblastoma) = test: as above
Procedure, shortened: as §1

[7] = system: MN-60 (B-Lymphoblastic Leukemia); test: as above
Procedure, shortened: as §1

[8] = system: IM-95 (Gastric Carcinoma); test: as above
Procedure, shortened: as §1

[9] = system: HCC1187 (Breast Carcinoma); test: as above
Procedure, shortened: as §1

[10] = system: KYSE-270 (Esophageal Squamous Cell Carcinoma); test: as above
Procedure, shortened: as §1

[11] = system: PC-3 (Prostate Carcinoma); test: as above
Procedure, shortened: as §1

[12] = system: KP-3 (Pancreatic Carcinoma); test: as above
Procedure, shortened: as §1

[13] = system: KY821 (Acute Myeloid Leukemia); test: as above
Procedure, shortened: as §1

G-361 (Melanoma) = test: as above
Procedure, shortened: as §1

[14] = system: DAN-G (Pancreatic Carcinoma); test: as above
Procedure, shortened: as §1

[15] = system: CHSA8926 (Chondrosarcoma); test: as above
Procedure, shortened: as §1

[16] = system: NCI-H526 (Small Cell Lung Carcinoma); test: as above
Procedure, shortened: as §1

[17] = system: KU812 (Chronic Myelogenous Leukemia); test: combination Emax (second highest fraction inhibited in the dose matrix, 72 h); higher = more inhibition; extreme values may be limits of the assay
Procedure, shortened: as §1
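For Bliss excess, mean over the matrix in this document: after 72 h of two-drug dosing.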

Row | SMILES | Bliss excess [1] | Bliss excess [2] | Bliss excess (SJSA-1 (Osteosarcoma)) | Bliss excess [3] | Bliss excess [4] | Bliss excess [5] | Bliss excess [6] | Bliss excess (M059J (Glioblastoma)) | Bliss excess [7] | Bliss excess [8] | Bliss excess [9] | Bliss excess [10] | Bliss excess [11] | Bliss excess [12] | Bliss excess [13] | Bliss excess (G-361 (Melanoma)) | Bliss excess [14] | Bliss excess [15] | Bliss excess [16] | combination Emax [17]
1 | Cn1cnc2c(F)c(Nc3ccc(Br)cc3Cl)c(C(=O)NOCCO)cc21 [Selumetinib] + C=CCn1c(=O)c2cnc(Nc3ccc(N4CCN(C)CC4)cc3)nc2n1-c1cccc(C(C)(C)O)n1 [AZD1775] (first compound max 10 µM, partner max 1 µM) | 0.0934 | 0.0127 | -0.0275 | -0.0414 | -0.0782 | -0.0923 | -0.0826 | -0.0499 | -0.0154 | 0.0309 | -0.0201 | -0.0654 | -0.0947 | -0.0312 | -0.115 | -0.0084 | 0.014 | -0.0377 | -0.052 | 0.965
2 | COc1nnc2ccc(N3CCC(c4ccc(OCCN5CCN(C)C(=O)[C@H]5C)cc4)CC3)nn12 [AZD5153] + C=CCn1c(=O)c2cnc(Nc3ccc(N4CCN(C)CC4)cc3)nc2n1-c1cccc(C(C)(C)O)n1 [AZD1775] (first compound max 1 µM, partner max 1 µM) | 0.0252 | -0.0551 | -0.0313 | -0.0225 | 0.0205 | -0.0646 | -0.0858 | -0.106 | -0.067 | -0.0146 | -0.0172 | -0.067 | -0.0118 | 0.0038 | -0.0266 | -0.0271 | -0.0496 | 0.0085 | -0.0252 | 0.931
3 | CC1(C)CCC(CN2CCN(c3ccc(C(=O)NS(=O)(=O)c4ccc(NCC5CCOCC5)c([N+](=O)[O-])c4)c(Oc4cnc5[nH]ccc5c4)c3)CC2)=C(c2ccc(Cl)cc2)C1 [Venetoclax] + C1CN(CCC1(C(=O)N[C@@H](CCO)C2=CC=C(C=C2)Cl)N)C3=NC=NC4=C3C=CN4 [Capivasertib] (first compound max 1 µM, 7x7, partner max 3 µM) | 0.0077 | -0.0099 | -0.0509 | 0.0074 | -0.054 | -0.0568 | -0.0285 | 0.0099 | -0.0485 | -0.0067 | -0.0227 | 0.0002 | -0.046 | -0.0257 | 0.0303 | -0.0618 | -0.0689 | -0.0364 | -0.0095 | 0.48
4 | C=CCn1c(=O)c2cnc(Nc3ccc(N4CCN(C)CC4)cc3)nc2n1-c1cccc(C(C)(C)O)n1 [AZD1775] + O=C(c1cc(Cc2n[nH]c(=O)c3ccccc23)ccc1F)N1CCN(C(=O)C2CC2)CC1 [Olaparib] (first compound max 1 µM, partner max 10 µM) | -0.0148 | -0.0525 | -0.0262 | 0.0405 | -0.0254 | -0.0542 | -0.0458 | 0.0374 | -0.0143 | -0.0047 | 0.0546 | -0.0166 | -0.0663 | -0.0118 | 0.019 | -0.0217 | -0.0142 | -0.0167 | -0.0152 | 0.816
5 | CC1(C)CCC(CN2CCN(c3ccc(C(=O)NS(=O)(=O)c4ccc(NCC5CCOCC5)c([N+](=O)[O-])c4)c(Oc4cnc5[nH]ccc5c4)c3)CC2)=C(c2ccc(Cl)cc2)C1 [Venetoclax] + Cc1cc2ncnn2cc1Nc1ncc2c(n1)n(C1CCOCC1)c(=O)n2C [AZD7648] (first compound max 1 µM, 7x7, partner max 10 µM) | -0.0374 | 0.0418 | -0.0404 | 0.0014 | -0.0059 | -0.0528 | -0.0326 | -0.0144 | -0.0125 | -0.0192 | -0.0061 | -0.0281 | -0.0245 | -0.0358 | 0.056 | -0.0147 | -0.0106 | -0.0023 | 0.0079 | 0.489
6 | CC1(C)CCC(CN2CCN(c3ccc(C(=O)NS(=O)(=O)c4ccc(NCC5CCOCC5)c([N+](=O)[O-])c4)c(Oc4cnc5[nH]ccc5c4)c3)CC2)=C(c2ccc(Cl)cc2)C1 [Venetoclax] + COc1cc(Nc2ncc3c(n2)-c2ccc(Cl)cc2C(c2c(F)cccc2OC)=NC3)ccc1C(=O)O [Alisertib] (first compound max 1 µM, 7x7, partner max 10 µM) | 0.0151 | 0.197 | -0.0583 | 0.0371 | -0.0328 | 0.0552 | 0.0159 | 0.0401 | 0.0368 | 0.005 | -0.0999 | -0.016 | -0.0536 | -0.0376 | 0.0079 | 0.0863 | -0.0024 | -0.025 | 0.194 | 0.838
7 | Cc1c2c(nn1C)CSCc1cc(n(C)n1)CSc1cc(c3ccccc3c1)OCCCc1c(C(=O)O)n(C)c3c-2c(Cl)ccc13 [AZD5991] + C[C@@H]1COCCN1C2=NC(=NC(=C2)C3(CC3)[S@](=N)(=O)C)C4=C5C=CNC5=NC=C4 [AZD6738] (first compound max 1 µM, 7x7, partner max 10 µM) | 0.0181 | -0.0296 | 0.0711 | 0.0037 | 0.0496 | -0.0252 | 0.0573 | -0.0165 | -0.0081 | -0.0412 | 0.0756 | 0.0289 | 0.035 | 0.0405 | -0.0356 | 0.0356 | 0.0265 | -0.0081 | 0.0188 | 0.902
8 | CN(CCO)CC[C@H](CSc1ccccc1)Nc1ccc(S(=O)(=O)NC(=O)c2ccc(N3CCC([C@@H](O)c4ccccc4-c4ccc(Cl)cc4)CC3)cc2)cc1S(=O)(=O)C(F)(F)F [AZD4320] + Cn1cnc2c(F)c(Nc3ccc(Br)cc3Cl)c(C(=O)NOCCO)cc21 [Selumetinib] (first compound max 1 µM, 7x7, partner max 3 µM) | 0.0853 | 0.0597 | 0.0413 | 0.0296 | -0.0091 | -0.136 | -0.0045 | -0.0289 | 0.0026 | 0.0132 | 0.0264 | 0.0148 | -0.0148 | 0.0111 | 0.0262 | 0.028 | 0.04 | -0.0256 | -0.0061 | 0.966
9 | CN(CCO)CC[C@H](CSc1ccccc1)Nc1ccc(S(=O)(=O)NC(=O)c2ccc(N3CCC([C@@H](O)c4ccccc4-c4ccc(Cl)cc4)CC3)cc2)cc1S(=O)(=O)C(F)(F)F [AZD4320] + Cc1cc2ncnn2cc1Nc1ncc2c(n1)n(C1CCOCC1)c(=O)n2C [AZD7648] (first compound max 1 µM, 7x7, partner max 10 µM) | -0.0072 | 0.0134 | -0.0406 | 0.0157 | -0.0356 | -0.0387 | -0.059 | -0.0258 | -0.0177 | -0.0645 | -0.025 | -0.0197 | -0.0432 | -0.0471 | 0.0393 | -0.0444 | -0.0484 | 0.0101 | -0.0069 | 0.872
10 | CC(=O)c1c(C)c2cnc(Nc3ccc(N4CCNCC4)cn3)nc2n(C2CCCC2)c1=O [Palbociclib] + CC1(C)CCC(CN2CCN(c3ccc(C(=O)NS(=O)(=O)c4ccc(NCC5CCOCC5)c([N+](=O)[O-])c4)c(Oc4cnc5[nH]ccc5c4)c3)CC2)=C(c2ccc(Cl)cc2)C1 [Venetoclax] (first compound max 10 µM, 7x7, partner max 1 µM) | -0.0176 | -0.112 | -0.0295 | 0.04 | -0.0003 | -0.0493 | -0.0412 | -0.0511 | -0.0666 | -0.0399 | -0.0079 | -0.0349 | -0.0582 | -0.0533 | 0.0485 | 0.016 | -0.0324 | -0.0232 | -0.0033 | 0.521
11 | Cc1c2c(nn1C)CSCc1cc(n(C)n1)CSc1cc(c3ccccc3c1)OCCCc1c(C(=O)O)n(C)c3c-2c(Cl)ccc13 [AZD5991] + CC1(C)CCC(CN2CCN(c3ccc(C(=O)NS(=O)(=O)c4ccc(NCC5CCOCC5)c([N+](=O)[O-])c4)c(Oc4cnc5[nH]ccc5c4)c3)CC2)=C(c2ccc(Cl)cc2)C1 [Venetoclax] (first compound max 1 µM, 7x7, partner max 1 µM) | 0.0213 | -0.033 | -0.0941 | 0.125 | 0.0098 | -0.0199 | -0.032 | -0.0539 | -0.031 | 0.0119 | 0.0026 | 0.0348 | -0.0312 | -0.0533 | 0.0331 | 0.008 | -0.0352 | -0.031 | 0.243 | 0.902
12 | Cc1cc2ncnn2cc1Nc1ncc2c(n1)n(C1CCOCC1)c(=O)n2C [AZD7648] + CCN(CCO)CCCOc1ccc2c(Nc3cc(CC(=O)Nc4cccc(F)c4)[nH]n3)ncnc2c1 [AZD2811] (first compound max 10 µM, 7x7, partner max 1 µM) | -0.0667 | -0.0223 | 0.0601 | -0.0314 | 0.0136 | 0.0246 | 0.0781 | -0.0551 | -0.0061 | 0.0835 | -0.0446 | 0.0332 | -0.0346 | 0.0126 | 0.139 | 0.0453 | 0.0271 | -0.0331 | 0.0568 | 0.66
13 | CN(CCO)CC[C@H](CSc1ccccc1)Nc1ccc(S(=O)(=O)NC(=O)c2ccc(N3CCC([C@@H](O)c4ccccc4-c4ccc(Cl)cc4)CC3)cc2)cc1S(=O)(=O)C(F)(F)F [AZD4320] + C[C@@H](Nc1cc(F)cc(F)c1)c1cc(C(=O)N(C)C)cc2c(=O)cc(N3CCOCC3)oc12 [AZD8186] (first compound max 1 µM, 7x7, partner max 3 µM) | 0.0179 | -0.0036 | -0.0489 | 0.0619 | 0.0282 | -0.018 | 0.0346 | 0.0316 | -0.0104 | 0.0117 | 0.0582 | 0.0225 | 0.057 | 0.0002 | 0.0053 | 0.027 | 0.0484 | 0.0889 | 0.0434 | 0.705
